Assay results published in patent US20250059162A1, “MULTI-PROTEIN DEGRADATION AGENT HAVING IMIDE SKELETON” (SUZHOU KINTOR PHARMACEUTICALS, INC., priority 2021, published 2025).

What was measured:
Format in all cases: cell-based
[1] = biological target: T1, c-Myc protein (Homo sapiens, UniProt P01106); assay: c-Myc protein degradation in HL60 cells (Western blot); details: for remaining activity at 0.01 µM: HL-60, compound at 10 nM, 24 h, gray value relative to Ctrl (DMSO), read-out: Remaining amount of c-Myc protein (@10 nM/Ctrl)
T1 construct: degradation of myc and GSPT1 proteins in HL60 cells; endogenous in cells; host or cells: HL60
Experimental: (§1) HL60 cells in the exponential growth phase were digested and plated into a 6-well plate at 1×10^6 cells per well. The cell culture medium was RPMI-1640 (meilunbio, MA0215). After a day of adherent growth of the cells, the compound of the present invention was added as a test drug for culture, and proteins were extracted 24 h later (Ctrl meant adding only DMSO at the same volume).
(§2) In the 6-well plate, the culture medium RPMI-1640 (meilunbio, MA0215) was removed, and the cells were washed once with PBS, digested with trypsin, and centrifuged and collected separately into 1.5 mL centrifuge tubes. 100 μL of RIPA lysis buffer (containing 100 μM PMSF) was added to each tube, mixed thoroughly, allowed to stand on ice for 30 min and then centrifuged at 12000 rpm at 4° C. using a centrifuge for 20 min. The supernatant was used for Western blotting experiments. The sample can be stored at −80° C.
(§3) By using the BCA protein concentration determination kit (from Thermo Fisher, Cat. No. 23225), the BSA standard determination solution and the samples to be tested (the samples to be tested can be diluted and then tested) were prepared according to the table A below. Samples were added to the 96-well plate. Each well was supplemented with PBS to 20 μL, and then 200 μL of BCA working solution (prepared according to the kit) was added respectively and mixed evenly. The plate was placed at 60° C. for 10 min, and then the absorbance at 562 nm was detected. After the reading was recorded, a standard curve was plotted using concentration gradients of the standards, and the absorbance of the samples was substituted to calculate the protein concentration of the samples.
(§4) • 2.1 Protein denaturation: RIPA protein buffer (purchased from Solarbio, Cat. No. R0010) and 5× Loading Buffer (SDS, glycerin, bromophenol blue, TRIS) (purchased from Solarbio, Cat. No. P1040) were added, and the protein samples were denatured at 100° C. for 5 min. • 2.2 Sample loading and electrophoresis: 10% precast gel and the corresponding electrophoresis buffer were used. The same mass of protein sample and protein ladder (purchased from thermo, Cat. No. 26617) were loaded into each well, and electrophoresis at 200 V was performed for 30 min. • 2.3 […]: The gel was excised to remove the excess part. Transferring to PVDF membrane was performed by the wet transfer method (before use, it was necessary to activate the PVDF membrane with methanol for 1 min) at 300 mA for 2 h, during which a lot of heat was generated, and thus cooling with an ice box was required. • 2.4 Blocking: After the transferring, the PVDF membrane was placed in 5% skim milk and blocked with shaking at room temperature for 1 h. • 2.5 Incubating with primary antibody: The PVDF membrane was cut according to the molecular weight indicated on the marker and placed in c-myc (purchased from abcam, Cat. No. ab32072), or GSPT1 (purchased from abcam, Cat. No. ab234433), or CK1α (purchased from abcam, Cat. No. ab206652), or IKZF2 (purchased from proteintech, Cat. No. 13554-1-AP), and GAPDH (purchased from CST, Cat. No. #97166) primary antibodies. The antibodies were diluted with TBST buffer (a solution prepared from TRIS, KCL and NaCl and adjusted to pH 7.4 with hydrochloric acid, and Tween 20 was added) at a ratio of 1:1000, and blocked overnight on a shaker at 4° C. • 2.6 Incubating with secondary antibody: The PVDF membrane incubated with the primary antibody was washed with TBST for 3 times, each time for 10 min. After washing, the membrane was placed in the secondary antibody of the corresponding species, and incubated at room temperature in a shaker for 2 h. • 2.7 Washing membrane and exposure: After incubated with the secondary antibodies, the membrane was washed 3 times with TBST on a shaker, 10 minutes each time. […]

[2] = biological target: T2, CK1α protein (Homo sapiens, UniProt P48729); assay: CK1α protein degradation (Western blot); details: compound at 10 nM, 24 h, gray value relative to Ctrl (DMSO)
T2 construct: endogenous in cells; host or cells: HL60
Experimental: as §1, §2, §3
(§5) • 2.1 Protein denaturation: RIPA protein buffer (purchased from Solarbio, Cat. No. R0010) and 5× Loading Buffer (SDS, glycerin, bromophenol blue, TRIS) (purchased from Solarbio, Cat. No. P1040) were added, and the protein samples were denatured at 100° C. for 5 min. • 2.2 Sample loading and electrophoresis: 10% precast gel and the corresponding electrophoresis buffer were used. […]

[3] = biological target: T3, IKZF2 protein (Homo sapiens, UniProt Q9UKS7); assay: IKZF2 protein degradation (Western blot); details: compound at 10 nM, 24 h, gray value relative to Ctrl (DMSO)
T3 construct: endogenous in cells; host or cells: HL60
Experimental: as §1, §2, §3, §5

[4] = system: HL60 cells; assay: Anti-proliferation on HL60 cells (CellTiter-Glo, 3 days); details: Homo sapiens, HL-60, 72 h, 3 days incubation, CTG luminescence, IC50 by XLfit, read-out: HL60 cells Proliferation inhibitory activity
How it was run: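 Log-phase cells were plated at 20000 cells/well and treated with compound dilutions in RPMI-1640 for 3 days, with 0.1% DMSO controls. Proliferation was read by CellTiter-Glo luminescence. IC50 was fitted from the inhibition rates.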

[5] = biological target: T4, GSPT1 protein (Homo sapiens, UniProt P15170); assay: GSPT1 protein degradation in HL60 cells (Western blot); details: for Degradation of GSPT1 protein in HL60 cells (FIG. 1, in words): FIG. 1, concentration not stated; for remaining GSPT1 protein at 0.01 µM: HL-60, compound at 10 nM, 24 h, gray value relative to Ctrl (DMSO), read-out: Remaining amount of GSPT1 protein (@10 nM/Ctrl)
T4 construct: degradation of myc and GSPT1 proteins in HL60 cells; endogenous in cells; host or cells: HL60
Experimental: as §1, §2, §3, §4

T1 sequence (P01106 whole entry): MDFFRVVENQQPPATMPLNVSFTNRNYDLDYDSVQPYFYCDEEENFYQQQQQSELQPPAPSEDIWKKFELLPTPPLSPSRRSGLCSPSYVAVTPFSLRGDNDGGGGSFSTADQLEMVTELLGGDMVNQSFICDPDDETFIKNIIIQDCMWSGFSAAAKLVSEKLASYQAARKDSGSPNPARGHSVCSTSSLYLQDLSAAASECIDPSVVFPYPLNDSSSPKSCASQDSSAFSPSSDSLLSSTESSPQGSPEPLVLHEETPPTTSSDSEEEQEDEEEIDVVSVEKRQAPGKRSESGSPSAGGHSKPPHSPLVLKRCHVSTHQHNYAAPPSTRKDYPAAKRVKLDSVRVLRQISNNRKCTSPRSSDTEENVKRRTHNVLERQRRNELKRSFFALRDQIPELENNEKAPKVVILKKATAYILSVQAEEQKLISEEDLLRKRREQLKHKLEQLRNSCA
T2 sequence (P48729 whole entry): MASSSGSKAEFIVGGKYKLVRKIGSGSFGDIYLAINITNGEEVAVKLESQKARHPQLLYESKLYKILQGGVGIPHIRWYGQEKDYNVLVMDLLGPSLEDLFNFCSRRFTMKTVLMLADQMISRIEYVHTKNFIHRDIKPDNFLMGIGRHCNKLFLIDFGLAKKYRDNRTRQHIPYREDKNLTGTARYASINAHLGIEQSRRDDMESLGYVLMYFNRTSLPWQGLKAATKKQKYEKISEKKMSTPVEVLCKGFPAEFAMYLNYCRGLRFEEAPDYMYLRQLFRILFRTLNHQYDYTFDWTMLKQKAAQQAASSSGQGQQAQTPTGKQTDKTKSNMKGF
T3 sequence (Q9UKS7 whole entry): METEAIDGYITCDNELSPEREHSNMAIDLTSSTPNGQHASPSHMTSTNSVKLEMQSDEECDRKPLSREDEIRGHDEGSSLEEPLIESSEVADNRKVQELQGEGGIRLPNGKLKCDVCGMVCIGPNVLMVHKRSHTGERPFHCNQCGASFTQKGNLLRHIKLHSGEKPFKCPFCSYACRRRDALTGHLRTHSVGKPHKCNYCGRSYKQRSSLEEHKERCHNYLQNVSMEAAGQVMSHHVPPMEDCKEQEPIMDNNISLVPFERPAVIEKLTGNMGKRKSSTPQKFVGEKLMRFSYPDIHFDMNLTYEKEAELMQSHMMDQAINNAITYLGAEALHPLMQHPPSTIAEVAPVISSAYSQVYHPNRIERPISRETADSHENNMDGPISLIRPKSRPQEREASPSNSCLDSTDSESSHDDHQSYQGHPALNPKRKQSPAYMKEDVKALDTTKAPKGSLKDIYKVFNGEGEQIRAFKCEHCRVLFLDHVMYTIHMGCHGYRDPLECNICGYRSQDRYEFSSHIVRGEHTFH
T4 sequence (P15170 whole entry): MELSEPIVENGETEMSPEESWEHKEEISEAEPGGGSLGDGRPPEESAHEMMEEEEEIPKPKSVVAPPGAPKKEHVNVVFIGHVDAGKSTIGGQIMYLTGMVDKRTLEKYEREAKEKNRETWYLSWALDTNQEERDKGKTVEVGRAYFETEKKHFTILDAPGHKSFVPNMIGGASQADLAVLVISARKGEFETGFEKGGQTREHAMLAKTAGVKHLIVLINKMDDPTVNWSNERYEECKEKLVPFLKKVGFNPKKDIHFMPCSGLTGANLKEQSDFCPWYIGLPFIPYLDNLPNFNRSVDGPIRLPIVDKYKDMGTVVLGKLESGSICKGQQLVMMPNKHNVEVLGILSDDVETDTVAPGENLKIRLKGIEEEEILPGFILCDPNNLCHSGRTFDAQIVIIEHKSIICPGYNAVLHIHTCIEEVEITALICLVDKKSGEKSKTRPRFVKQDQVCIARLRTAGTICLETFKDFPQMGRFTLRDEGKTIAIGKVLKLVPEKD

Degradation of c-Myc protein in HL60 cells at 10 nM (FIG. 1, in words) [1] | Remaining amount of CK1α protein (@10 nM/Ctrl) [2] [%] | Remaining amount of IKZF2 protein (@10 nM/Ctrl) [3] [%] | IC50 [4] [nM] | remaining activity at 0.01 µM [1] [%] | Degradation of GSPT1 protein in HL60 cells (FIG. 1, in words) [5] | remaining GSPT1 protein at 0.01 µM [5] [%] | Degradation of GSPT1 protein in HL60 cells at 10 nM (FIG. 1, in words) ([5]; 10 nM) | SMILES
no ability to degrade c-Myc protein | 78 | 85 |  |  |  |  |  | O=C1CCC(N2Cc3cc(CNC(=O)C(F)(F)c4ccc(Cl)cc4)ccc3C2=O)C(=O)N1 (centres unmarked) [CC-90009, reference compound]
 | 27 | 45 | 2 | 17 | significantly degrade GSPT1 protein | 16 |  | O=C1CCC(N2Cc3cc(CNCC4CCN(c5ncc(-c6cccc7ccccc67)cn5)CC4)ccc3C2=O)C(=O)N1 (centres unmarked) [Compound A62]
completely degrade both GSPT1 and c-Myc | 5 | 17 | < 0.2 | 0 | significantly degrade GSPT1 protein | 3 | completely degrade both GSPT1 and c-Myc | O=C1CCC(N2Cc3cc(CNCC4CCN(c5ncc(-c6cccc(Cl)c6)cc5C(F)(F)F)CC4)ccc3C2=O)C(=O)N1 (centres unmarked) [Compound A80]
